According to patent US11702422B2, “Imidazopyridazines as modulators of IL-17” (Janssen Pharmaceutica NV, priority 2020, dated 2023):

Tests used:
[1] = target: IL-17A(FLAG-Tagged): IL-17RA(His-Tagged) (Homo sapiens, UniProt Q16552, K93Q); assay: IL-17A(FLAG-Tagged): IL-17RA(His-Tagged) Binding Disruption Eu-HTRF Assay; conditions: IL-17A/IL-17RA binding disruption, simple average if tested more than once
Outline: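 IC50 comes from a one-site competition fit of the HTRF 665/620 nm ratio. Compound dilutions (2-fold, 22 points) were held 1 h rt with FLAG-tagged IL-17A dimer, then His-tagged IL-17RA plus Eu-cryptate anti-FLAG and D2 anti-His antibodies were added for 2 h rt.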

[2] = test system: IL-17A-induced G-CSF production in human normal keratinocyte (NHK); assay: NHK Assay: IL-17A-induced G-CSF production in human normal keratinocytes; format: cell-based; conditions: 24 h, adult normal human keratinocytes, IL-17A 5 ng/mL, simple average if tested more than once
Outline: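 Compound is first combined with recombinant human IL-17A for 1 h at rt, and the mix is added to adult normal human keratinocytes so that IL-17A is 5 ng/mL. After 24 h at 37° C in 5% FBS, G-CSF released into the medium is read by HTRF and IC50 derived.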

Sequence of UniProt Q16552 (Q16552 with tags, fused parts or gaps K93Q): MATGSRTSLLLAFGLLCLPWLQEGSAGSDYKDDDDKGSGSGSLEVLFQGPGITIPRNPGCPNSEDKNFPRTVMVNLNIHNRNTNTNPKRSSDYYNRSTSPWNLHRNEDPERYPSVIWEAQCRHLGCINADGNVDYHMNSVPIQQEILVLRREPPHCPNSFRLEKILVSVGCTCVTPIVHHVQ

| Compound | IC50 [1] [nM] | IC50 ([2]; Homo sapiens, Keratinocyte) [nM] | IC50 [2] [nM] |
| --- | --- | --- | --- |
| O=C(CCC(F)(F)F)N[C@@H](c1cnn2cc([C@@H](NC(=O)[C@@H]3C(F)(F)C34CCC4)C3CCC(F)(F)CC3)nc2c1)C1CC1 (relative stereo) [Example 369, (R*)—N—((S)-(7-((R*)-Cyclopropyl(4,4,4-trifluorobutanamido)methyl)imidazo[1,2-b]pyridazin-2-yl)(4,4-difluorocyclohexyl)methyl)-2,2-difluorospiro[2.3]hexane-1-carboxamide] | 140 | 530 | – |
| CCOCC(NC(=O)CC1CC(F)(F)C1)c1cnn2cc([C@@H](NC(=O)c3nonc3C3CC3)C3CCC(F)(F)CC3)nc2c1 (single isomer, unassigned) [Example 526, 4-Cyclopropyl-N—((S)-(7-((S*)-1-(2-(3,3-difluorocyclobutyl)acetamido)-2-ethoxyethyl)imidazo[1,2-b]pyridazin-2-yl)(4,4-difluorocyclohexyl)methyl)-1,2,5-oxadiazole-3-carboxamide] | 320 | – | 1200 |
| COCC(NC(=O)CC1CC(F)(F)C1)c1cnn2cc([C@@H](NC(=O)c3nonc3C3CC3)C3CCC(F)(F)CC3)nc2c1 (single isomer, unassigned) [Example 524, 4-Cyclopropyl-N—((S)-(7-((S*)-1-(2-(3,3-difluorocyclobutyl)acetamido)-2-methoxyethyl)imidazo[1,2-b]pyridazin-2-yl)(4,4-difluorocyclohexyl)methyl)-1,2,5-oxadiazole-3-carboxamide] | 380 | – | 3700 |
| Cc1nonc1C(=O)N[C@H](c1cn2ncc([C@H](NC(=O)C(C)(C)CC(F)F)C3CC3)cc2n1)C1CCC(F)(F)CC1 [Example 328, N—((S)-(7-((R)-Cyclopropyl(4,4-difluoro-2,2-dimethylbutanamido)methyl)imidazo[1,2-b]pyridazin-2-yl)(4,4-difluorocyclohexyl)methyl)-4-methyl-1,2,5-oxadiazole-3-carboxamide] | 2400 | > 20000 | – |
| CC(C)n1nccc1C(=O)N[C@@H](COC(C)(C)C)c1cn2ncc(C(NC(=O)CCC(F)(F)F)C3CC3)cc2n1 (single isomer, unassigned) [Example 317, N—((R)-2-(tert-Butoxy)-1-(7-((S*)-cyclopropyl(4,4,4-trifluorobutanamido)methyl)imidazo[1,2-b]pyridazin-2-yl)ethyl)-1-isopropyl-1H-pyrazole-5-carboxamide] | 9900 | – | > 20000 |
| O=C(CCC(F)(F)F)N[C@@H](c1cnn2cc([C@@H](NC(=O)c3ccccc3Cl)C3CCC(F)(F)CC3)nc2c1)C1CC1 [Example 42, 2-Chloro-N—((S)-(7-((R)-cyclopropyl(4,4,4-trifluorobutanamido)methyl)imidazo[1,2-b]pyridazin-2-yl)(4,4-difluorocyclohexyl)methyl)benzamide] | 410 | 2200 | – |
| N#Cc1cncc(C(=O)N[C@H](c2cn3ncc([C@H](NC(=O)CCC(F)(F)F)C4CC4)cc3n2)C2CCC(F)(F)CC2)c1 [Example 450, 5-Cyano-N—((S)-(7-((R)-cyclopropyl(4,4,4-trifluorobutanamido)methyl)imidazo[1,2-b]pyridazin-2-yl)(4,4-difluorocyclohexyl)methyl)nicotinamide] | 810 | 1700 | – |
| CC(C)n1nccc1C(=O)N[C@H](c1cn2ncc(C(NC(=O)CC3CC(F)(F)C3)C3(C#N)CC3)cc2n1)C1CCC(F)(F)CC1 (single isomer, unassigned) [Example 426, N—((S)-(7-((S*)-(1-Cyanocyclopropyl)(2-(3,3-difluorocyclobutyl)acetamido)methyl)imidazo[1,2-b]pyridazin-2-yl)(4,4-difluorocyclohexyl)methyl)-1-isopropyl-1H-pyrazole-5-carboxamide] | 340 | – | 100 |
| [2H]C([2H])([2H])C([2H])([2H])n1nccc1C(=O)N[C@H](c1cn2ncc([C@H](NC(=O)C[C@@H](C)C(F)(F)F)C3CCC3)cc2n1)C1CCC(F)(F)CC1 (relative stereo) [Example 501, N—((S)-(7-((R*)-Cyclobutyl((R*)-4,4,4-trifluoro-3-methylbutanamido)methyl)imidazo[1,2-b]pyridazin-2-yl)(4,4-difluorocyclohexyl)methyl)-1-(ethyl-d5)-1H-pyrazole-5-carboxamide] | 120 | 95 | – |
| CC(C)n1nccc1C(=O)N[C@H](c1cn2ncc([C@H](NC(=O)CC(C)(C)C(F)(F)F)C3CC3)cc2n1)C1CCC(F)(F)CC1 [Example 254, N—((S)-(7-((R)-Cyclopropyl(4,4,4-trifluoro-3,3-dimethylbutanamido)methyl)imidazo[1,2-b]pyridazin-2-yl)(4,4-difluorocyclohexyl)methyl)-1-isopropyl-1H-pyrazole-5-carboxamide] | 290 | 200 | – |
| Cc1ncccc1C(=O)N[C@H](c1cn2ncc([C@H](NC(=O)CCC(F)(F)F)C3CC3)cc2n1)C1CCC(F)(F)CC1 [Example 200, N—((S)-(7-((R)-Cyclopropyl(4,4,4-trifluorobutanamido)methyl)imidazo[1,2-b]pyridazin-2-yl)(4,4-difluorocyclohexyl)methyl)-2-methylnicotinamide] | 760 | 2200 | – |

Compounds with a lower IC50 [1], results first:

| IC50 [1] [nM] | Compound | IC50 ([2]; Homo sapiens, Keratinocyte) [nM] | IC50 [2] [nM] |
| --- | --- | --- | --- |
| 62 | Cc1nonc1C(=O)N[C@H](c1cn2ncc([C@H](NC(=O)CC3CCC3)C3CC3)cc2n1)C1CCC(F)(F)CC1 [Example 247, N—((S)-(7-((R)-(2-Cyclobutylacetamido)(cyclopropyl)methyl)imidazo[1,2-b]pyridazin-2-yl)(4,4-difluorocyclohexyl)methyl)-4-methyl-1,2,5-oxadiazole-3-carboxamide] | 190 | – |
| 51 | CC(CC(=O)N[C@@H](c1cnn2cc([C@@H](NC(=O)c3conc3C3CC3)C3CCC(F)(F)CC3)nc2c1)C1CC1)C(F)(F)F (single isomer, unassigned) [Example 129, 3-Cyclopropyl-N—((S)-(7-((R)-cyclopropyl((S*)-4,4,4-trifluoro-3-methylbutanamido)methyl)imidazo[1,2-b]pyridazin-2-yl)(4,4-difluorocyclohexyl)methyl)isoxazole-4-carboxamide] | – | 250 |
| 69 | Cc1nonc1C(=O)N[C@H](c1cn2ncc([C@H](NC(=O)C(F)C3CCC3)C3CC3)cc2n1)C1CCC(F)(F)CC1 (single isomer, unassigned) [Example 348, N—((S)-(7-((R)-((R*)-2-Cyclobutyl-2-fluoroacetamido)(cyclopropyl)methyl)imidazo[1,2-b]pyridazin-2-yl)(4,4-difluorocyclohexyl)methyl)-4-methyl-1,2,5-oxadiazole-3-carboxamide] | – | 220 |
| 90 | CC(C)n1nccc1C(=O)N[C@H](c1cn2ncc([C@H](NC(=O)CC3CCC3)C3CC3)cc2n1)C1CCC(F)(F)CC1 [Example 246, N—((S)-(7-((R)-(2-Cyclobutylacetamido)(cyclopropyl)methyl)imidazo[1,2-b]pyridazin-2-yl)(4,4-difluorocyclohexyl)methyl)-1-isopropyl-1H-pyrazole-5-carboxamide] | 41 | – |
| 57 | O=C(CCC(F)(F)F)N[C@@H](c1cnn2cc([C@@H](NC(=O)c3cncc(C4CC4)c3)C3CCC(F)(F)CC3)nc2c1)C1CC1 [Example 414, 5-Cyclopropyl-N—((S)-(7-((R)-cyclopropyl(4,4,4-trifluorobutanamido)methyl)imidazo[1,2-b]pyridazin-2-yl)(4,4-difluorocyclohexyl)methyl)nicotinamide] | 730 | – |
| 32 | O=C(CCC(F)(F)F)N[C@@H](c1cnn2cc([C@@H](NC(=O)c3cncc(CC(F)F)c3)C3CCC(F)(F)CC3)nc2c1)C1CC1 [Example 152, N—((S)-(7-((R)-Cyclopropyl(4,4,4-trifluorobutanamido)methyl)imidazo[1,2-b]pyridazin-2-yl)(4,4-difluorocyclohexyl)methyl)-5-(2,2-difluoroethyl)nicotinamide] | 180 | – |
| 27 | O=C(CCC(F)(F)F)N[C@@H](c1cnn2cc([C@@H](NC(=O)c3nonc3C3CC3)C3CCC(F)(F)CC3)nc2c1)C1CC1 [Example 381, 4-Cyclopropyl-N—((S)-(7-((R)-cyclopropyl(4,4,4-trifluorobutanamido)methyl)imidazo[1,2-b]pyridazin-2-yl)(4,4-difluorocyclohexyl)methyl)-1,2,5-oxadiazole-3-carboxamide] | 31 | – |
| 46 | CC(C)c1nonc1C(=O)N[C@H](c1cn2ncc(C(NC(=O)CCC(F)(F)F)C(C)C)cc2n1)C1CCC(F)(F)CC1 (single isomer, unassigned) [Example 511, N—((S)-(4,4-Difluorocyclohexyl)(7-((S*)-2-methyl-1-(4,4,4-trifluorobutanamido)propyl)imidazo[1,2-b]pyridazin-2-yl)methyl)-4-isopropyl-1,2,5-oxadiazole-3-carboxamide] | 21 | – |
| 90 | O=C(CCC(F)(F)F)N[C@@H](c1cnn2cc([C@@H](NC(=O)c3ccnn3C(F)(F)F)C3CCC(F)(F)CC3)nc2c1)C1CC1 [Example 104, N—((S)-(7-((R)-Cyclopropyl(4,4,4-trifluorobutanamido)methyl)imidazo[1,2-b]pyridazin-2-yl)(4,4-difluorocyclohexyl)methyl)-1-(trifluoromethyl)-1H-pyrazole-5-carboxamide] | 550 | – |
